How the values were obtained:
[1] = target: T1, Tie2 receptor tyrosine kinase (Homo sapiens, UniProt Q02763); assay: In vitro receptor tyrosine kinase inhibition assay (ELISA based, Test (a)); type: biochemical; conditions: recombinant human Tie2 kinase domain lysate, synthetic peptide substrate
T1 construct: consist of only the intracellular portion C-terminal portion of the respective receptor, within which is found the kinase domain; made in house; host or cells: baculovirus/Sf21 insect cells (cleared lysate used)
T1 sequence (Q02763 770-1124 limits assumed): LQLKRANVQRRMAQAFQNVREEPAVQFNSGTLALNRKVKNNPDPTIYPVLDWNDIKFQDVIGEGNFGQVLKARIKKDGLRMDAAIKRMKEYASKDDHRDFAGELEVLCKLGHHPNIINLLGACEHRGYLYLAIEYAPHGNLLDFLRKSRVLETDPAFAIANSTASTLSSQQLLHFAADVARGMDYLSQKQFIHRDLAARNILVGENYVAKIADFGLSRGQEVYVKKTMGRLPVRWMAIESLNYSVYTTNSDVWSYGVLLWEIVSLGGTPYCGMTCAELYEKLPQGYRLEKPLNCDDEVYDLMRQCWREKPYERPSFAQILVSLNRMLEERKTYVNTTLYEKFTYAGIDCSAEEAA
Protocol: a. In Vitro Receptor Tyrosine Kinase Inhibition Assay
To test for inhibition of Tie2 receptor tyrosine kinase, compounds are evaluated in a non-cell based protein kinase assay by their ability to inhibit the protein kinase enzyme phosphorylation of a tyrosine containing polypeptide substrate in an ELISA based microtitre plate assay. In this particular case, the assay was to determine the IC50, for three different recombinant human tyrosine kinases Tie2, KDR and Flt.
To facilitate production of the tyrosine kinases, recombinant receptor genes were produced using standard molecular biology cloning and mutagenesis techniques. These recombinant proteins fragments encoded within these genes consist of only the intracellular portion C-terminal portion of the respective receptor, within which is found the kinase domain. The recombinant genes encoding the kinase domain containing fragments were cloned and expressed in standard baculovirus/Sf21 system (or alternative equivalent). […]
Constitutive kinase activity of these recombinant proteins was determined by their ability to phosphorylate a synthetic peptide (made up of a random co-polymer of Glutamic Acid, Alanine and Tyrosine in the ratio of 6:3:1). […]
The immobilised phospho-peptide product of the reaction was detected by immunological methods. […] Following extensive washing with PBS-T, HRP activity in each well of the plate was measured colorimetrically using 22′-Azino-di-[3-ethylbenzthiazoline sulfonate (6)] diammonium salt crystals ABTS (Sigma P4922-prepared as per manufactures instructions) as a substrate incubated for 30-45 minutes to allow colour development, before 100 ul of 1M H2SO4 was added to stop the reaction.
Quantification of colour development and thus enzyme activity was achieved by the measurement of absorbance at 405 nm on a Molecular Devices ThermoMax microplate reader. Kinase inhibition for a given compound was expressed as an IC50 value. […] The range of phosphorylation was calculated from the positive (vehicle plus ATP) and negative (vehicle minus ATP) control values.

Tie2 receptor = target: T2, Tie2 receptor (Homo sapiens, UniProt Q02763); assay: Cellular Tie2 autophosphorylation assay (Test (b)); type: cell-based; conditions: Ang1 ligand stimulated cellular Tie2 receptor, e.g. EA.hy926/B3 cells; read-out: IC50 Test (b): Inhibition of autophosphorylation of Tie2 receptor tyrosine kinase
T2 construct: one can use natural cell lines or primary cells which are known to express the receptor of choice; endogenous in cells; host or cells: EA.hy926/B3 cells
T2 sequence (Q02763 23-1124): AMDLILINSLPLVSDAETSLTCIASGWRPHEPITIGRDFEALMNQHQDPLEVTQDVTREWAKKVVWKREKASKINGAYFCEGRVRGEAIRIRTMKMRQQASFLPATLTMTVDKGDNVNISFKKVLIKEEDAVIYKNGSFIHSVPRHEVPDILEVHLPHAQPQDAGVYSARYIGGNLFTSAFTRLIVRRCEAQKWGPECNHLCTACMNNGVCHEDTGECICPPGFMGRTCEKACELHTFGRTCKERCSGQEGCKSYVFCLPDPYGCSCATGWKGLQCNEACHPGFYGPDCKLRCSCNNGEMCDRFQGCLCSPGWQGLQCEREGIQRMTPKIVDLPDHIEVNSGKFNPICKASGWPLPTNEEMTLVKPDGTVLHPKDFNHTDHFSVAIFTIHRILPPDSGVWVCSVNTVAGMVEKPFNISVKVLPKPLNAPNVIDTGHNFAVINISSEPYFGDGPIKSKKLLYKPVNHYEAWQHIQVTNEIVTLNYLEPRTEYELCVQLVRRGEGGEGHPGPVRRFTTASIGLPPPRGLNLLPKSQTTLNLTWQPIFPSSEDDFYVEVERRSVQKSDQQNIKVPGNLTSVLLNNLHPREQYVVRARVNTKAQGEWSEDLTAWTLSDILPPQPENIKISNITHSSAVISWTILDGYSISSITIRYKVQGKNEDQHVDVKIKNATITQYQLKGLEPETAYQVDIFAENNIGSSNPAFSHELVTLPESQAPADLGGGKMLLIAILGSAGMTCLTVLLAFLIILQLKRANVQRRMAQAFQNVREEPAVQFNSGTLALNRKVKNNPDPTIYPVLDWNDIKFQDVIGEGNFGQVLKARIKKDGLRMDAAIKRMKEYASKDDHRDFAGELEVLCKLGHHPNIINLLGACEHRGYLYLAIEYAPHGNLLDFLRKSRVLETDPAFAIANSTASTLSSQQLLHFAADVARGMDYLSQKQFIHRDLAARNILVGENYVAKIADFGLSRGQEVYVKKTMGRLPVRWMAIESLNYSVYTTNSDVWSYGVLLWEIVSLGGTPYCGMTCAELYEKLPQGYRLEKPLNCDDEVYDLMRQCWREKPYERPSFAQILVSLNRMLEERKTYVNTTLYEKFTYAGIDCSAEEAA
From the text: b. Cellular Tie2 Autophosphorylation Assay
This assay is based on measuring the ability of compounds to inhibit autophosphorylation of the Tie2 receptor which normally leads to the production of “activated” receptor that in turn initiates the particular signal transduction pathways associated with the receptor function.
Autophosphorylation can be achieved by a number of means. It is known that expression of recombinant kinase domains in baculoviral systems can lead to the production of phosphorylated and activated receptor. It is also reported that over expression of receptors in recombinant cell lines can itself lead to receptor autophosphorylation in the absence of the ligand (Heldin C-H. 1995 Cell : 80, 213-223; Blume-J. P, Hunter T. 2001 Nature: 411, 355-65). Furthermore, there are numerous literature examples in which chimaeric receptors have been constructed. In these cases the natural, external cell surface domain of the receptor has been replaced with that of a domain which is known to be readily dimerised via the addition of the appropriate ligand (e.g. TrkA-Tie2/NGF ligand (Marron, M. B., et al., 2000 Journal of Biological Chemistry: 275:39741-39746) or C-fms-Tie-1/CSF-1 ligand (Kontos, C. D., et al., 2002 Molecular and Cellular Biology: 22, 1704-1713). Thus when the chimaeric receptor expressed in a host cell line and the respective ligand is added, this induces autophosphorylation of the chimeric receptor's kinase domain. This approach has the advantage of often allowing a known (and often easily obtained) ligand to be used instead of having to identify and isolate the natural ligand for each receptor of interest.
Naturally if the ligand is available one can use natural cell lines or primary cells which are known to express the receptor of choice and simply stimulate with ligand to achieve ligand induced phosphorylation. […]

Compound	IC50 [1]	IC50 (Tie2 receptor)
Cc1cc(NC(=O)Nc2cccc(C#Cc3c(N)ncnc3N)c2)on1 [Example 19, N-{3-[(4,6-diaminopyrimidin-5-yl)ethynyl]phenyl}-N′-(3-methylsoxazol-5-yl)urea]	2.14 µM	3.54 µM
CC(C)(C)c1nnc(NC(=O)Nc2ccc(C#Cc3c(N)ncnc3N)cc2)s1 [Example 11, N-(5-tert-butyl-1,3,4-thiadiazol-2-yl)-N′-{4-[(4,6-diaminopyrimidin-5-yl)ethynyl]phenyl}urea]	0.879 µM	5.56 µM
Cc1cc(NC(=O)Nc2ccc(C#Cc3c(N)ncnc3N)cc2)sn1 [Example 12, N-{4-[(4,6-diaminopyrimidin-5-yl)ethynyl]phenyl}-N′-(3-methylisothiazol-5-yl)urea]	2.85 µM	0.351 µM
